# Source: patent US9447408B2, “Method of efficiently establishing induced pluripotent stem cells” (Kyoto University, priority 2010, dated 2016)
# Columns and labels:
# [1] = test system: Mouse embryonic fibroblasts (MEFs); test: iPS cell establishment from MEFs, 3 genes (Oct3/4, Sox2, Klf4) introduced, with p38 inhibitors; format: cell-based; settings: 10 μM inhibitor added in the initial stage after the infection
# Experimental: Three genes were introduced using a retrovirus by the same experimental procedures as the above. The cells were cultured at a cell density of 2×10^4 cells/10 cm dish, with the addition of 10 μM of SB202190, SB239063, or SB203580 (Calbiochem Company) to the medium per the schedule shown below, and the establishment efficiency was compared. • 1. Oct3/4, Sox2, Klf4, each derived from mouse, saline • 2. Oct3/4, Sox2, Klf4, each derived from mouse, DMSO • 3. Oct3/4, Sox2, Klf4, each derived from mouse, SB202190 10 μM (Day 1-4) • 4. Oct3/4, Sox2, Klf4, each derived from mouse, SB202190 10 μM (Day 1-8) • 5. Oct3/4, Sox2, Klf4, each derived from mouse, SB202190 10 μM (Day 9-16) • 6. Oct3/4, Sox2, Klf4, each derived from mouse, SB202190 10 μM (Day 1-16) • 7. Oct3/4, Sox2, Klf4, each derived from mouse, SB239063 10 μM (Day 1-4) • 8. Oct3/4, Sox2, Klf4, each derived from mouse, SB239063 10 μM (Day 1-8) • 9. Oct3/4, Sox2, Klf4, each derived from mouse, SB239063 10 μM (Day 9-16) • 10. Oct3/4, Sox2, Klf4, each derived from mouse, SB239063 10 μM (Day 1-16) • 11. Oct3/4, Sox2, Klf4, each derived from mouse, SB203580 10 μM (Day 1-4) • 12. Oct3/4, Sox2, Klf4, each derived from mouse, SB203580 10 μM (Day 1-8) • 13. Oct3/4, Sox2, Klf4, each derived from mouse, SB203580 10 μM (Day 9-16) • 14. Oct3/4, Sox2, Klf4, each derived from mouse, SB203580 10 μM (Day 1-16),
# [2] = test system: Mouse embryonic fibroblasts (MEFs); test: iPS cell establishment from Nanog-GFP reporter MEFs, 4 genes (Oct3/4, Sox2, Klf4, c-Myc) introduced, with p38 inhibitors; format: cell-based
# Experimental: Mouse embryonic fibroblasts (MEFs) from a Nanog reporter mouse carrying Nanog-GFP—IRES-Puro^r [Okita K. et al, Nature 448, 313-317 (2007)] were transfected with four genes using a retrovirus to induce iPS cells.
# Each retrovirus for reprogramming was prepared by transferring each of retroviral expression vectors (pMXs-Oct3/4, pMXs-Sox2, pMXs-Klf4, pMXs-cMyc:Cell, 126, 663-676 (2006)) to Plat-E cells (Morita, S. et al., Gene Ther. 7, 1063-1066) that had been seeded to a 6-well culture plate (Falcon) at 0.6×10^6 cells per well on the day before. The cells were cultured at 37° C. in the presence of 5% CO2 using DMEM/10% FCS [a culture broth prepared by adding 10% fetal calf serum to DMEM (Nacalai Tesque)]. To facilitate vector transfer, 4.5 μL of FuGene6 transfection reagent (Roche) was placed in 100 μL of Opti-MEM I Reduced-Serum Medium (Invitrogen), and the medium was allowed to stand at room temperature for 5 minutes. Subsequently, 1.5 μg of each expression vector was added, and the medium was allowed to further stand at room temperature for 15 minutes, after which they were added to the Plat-E culture broth. On day 2, the Plat-E supernatant was replaced with a fresh supply of the medium. On day 3, the culture supernatant was recovered and filtered through a 0.45 μm sterile filter (Whatman), and polybrene (Nacalai) was added at 4 μg/mL to yield a viral liquid.
# Mouse embryonic fibroblasts (MEFs) were isolated from a fetal Nanog reporter mouse (13.5 days after fertilization). […] Not expressing the puromycin resistance gene as well, MEFs are susceptible to the antibiotic puromycin. As such, MEFs were seeded to a 6-well culture plate (Falcon), previously coated with 0.1% gelatin (Sigma), at 1.0×10^5 cells per well. DMEM/10% FCS served as the culture broth at 37° C. in the presence of 5% CO2. The following day, each retrovirus liquid was added, and this was followed by overnight infection to introduce the genes.
# On day 1 after the viral infection, the medium for the MEFs was removed, and the cells were washed by the addition of 1 mL of PBS. After removing the PBS, 0.25% Trypsin/1 mM EDTA (Invitrogen) was added, and a reaction was carried out at 37° C. for about 5 minutes. After the cells floated up, the cells were suspended by the addition of an ES cell culture medium and 2500 cells were seeded to a 100 mm dish having mitomycin C-treated STO feeder cells seeded thereto previously. Cultivation was continued while replacing the ES cell culture medium with a fresh supply of the same medium every two days until a visible colony emerged.
# To determine the effects of p38 inhibitors on the establishment of iPS cells by the introduction of the four mouse genes, cultivation was continued with the addition of 10 μM of the p38 inhibitor 5B202190, SB239063, or SB203580 (Calbiochem Company) to the medium per the schedule shown below. All these inhibitors were used in solution in DMSO. • 1. Oct3/4, Sox2, Klf4, c-Myc, each derived from mouse, saline • 2. Oct3/4, Sox2, Klf4, c-Myc, each derived from mouse, DMSO • 3. Oct3/4, Sox2, Klf4, c-Myc, each derived from mouse, SB202190 10 μM Day 1-4) • 4. Oct3/4, Sox2, Klf4, c-Myc, each derived from mouse, SB202190 10 μM (Day 1-8) • 5. Oct3/4, Sox2, Klf4, c-Myc, each derived from mouse, SB202190 10 μM (Day 9-16) • 6. Oct3/4, Sox2, Klf4, c-Myc, each derived from mouse, SB202190 10 μM (Day 1-16) • 7. Oct3/4, Sox2, Klf4, c-Myc, each derived from mouse, SB239063 10 μM (Day 1-4) • 8. Oct3/4, Sox2, Klf4, c-Myc, each derived from mouse, SB239063 10 μM (Day 1-8) • 9. Oct3/4, Sox2, Klf4, c-Myc, each derived from mouse, SB239063 10 μM (Day 9-16) • 10. Oct3/4, Sox2, Klf4, c-Myc, each derived from mouse, SB239063 10 μM (Day 1-16) • 11. Oct3/4, Sox2, Klf4, c-Myc, each derived from mouse, SB203580 10 μM (Day 1-4) • 12. Oct3/4, Sox2, Klf4, c-Myc, each derived from mouse, SB203580 10 μM (Day 1-8) • 13. Oct3/4, Sox2, Klf4, c-Myc, each derived from mouse, SB203580 10 μM (Day 9-16) • 14. […]
smiles,measurement,setting,value
"C[S+]([O-])c1ccc(-c2nc(-c3ccc(F)cc3)c(-c3ccncc3)[nH]2)cc1 (stereo not drawn) [SB203580, 4-(4-fluorophenyl)-2-(4-methylsulfinylphenyl)-5-(4-pyridyl)-1H-imidazole]",number of positive cells compared with DMSO treatment,[1],increased
same,effect on colony count when measured on day 28 after the infection,"[2]; 10 μM inhibitor on days 1 to 4, counted day 28",remarkable
same,colony count compared with cells treated with physiological saline or DMSO,"[2]; 10 μM inhibitor on days 1 to 4 after the infection, FIG. 1",tended to increase
